Experimental data as given in ChEMBL document CHEMBL1201862, “PubChem BioAssay data set” (2004).
Several values for one entry are separate records, joined by “and”; a condition that tells them apart may be missing. Identical values can stand only once.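 A five-concentration, 48-hour dose response in 96-well plates underlies each endpoint, interpolated linearly between surrounding concentrations. Here, GI50 denotes the concentration required for 50% inhibition of growth.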 Activity calls are given as the source filed them. Cut-off read from the data, not from the text of the source: active = GI50 up to about 1.1 µM and inactive = higher. Where a SMILES comes first, the peptide text is derived from it. Peptide text beside a SMILES is read from it. [ ]: non-standard residue; d: D form. The star is where a group is joined. * marks the point of attachment. ξ: configuration not given here. NMeF = CN[C@@H](Cc1ccccc1)C(=O)O; NMeV = CN[C@H](C(=O)O)C(C)C; ξNMeN = CNC(CC(N)=O)C(=O)O; NMeA = CN[C@@H](C)C(=O)O; ξNMeV = CNC(C(=O)O)C(C)C; Boc = CC(C)(C)OC(=O)*; OBn = c1ccc(CO*)cc1; Bn = c1ccc(C*)cc1

Columns and labels:
Assay in all cases: NCI anticancer screen, dose series, 48 h
A498 = test system: A498
A549 = test system: A549
CCRF-CEM = test system: CCRF-CEM
DU-145 = test system: DU-145
HOP-62 = test system: HOP-62
K562 = test system: K562
MDA-MB-231 = test system: MDA-MB-231
NCI-H23 = test system: NCI-H23
NCI-H460 = test system: NCI-H460
NCI/ADR-RES = test system: NCI/ADR-RES
OVCAR-4 = test system: OVCAR-4
RPMI-8226 = test system: RPMI-8226
SK-MEL-28 = test system: SK-MEL-28
SNB-19 = test system: SNB-19
TK-10 = test system: TK-10
U-251 = test system: U-251
Hs-578T = test system: Hs-578T
KM12 = test system: KM12
NCI-H522 = test system: NCI-H522
CAKI-1 = test system: CAKI-1

Measured: GI50

N=C(N)C1CN(CCc2c[nH]c3ccccc23)C(=O)NC1=O (centres undefined)
inactive: A498 > 100 µM | A549 > 100 µM | CCRF-CEM > 100 µM | DU-145 > 100 µM | HOP-62 > 100 µM | K562 > 100 µM | MDA-MB-231 > 100 µM | NCI-H23 > 100 µM | NCI-H460 > 100 µM | NCI/ADR-RES > 100 µM | OVCAR-4 > 100 µM | RPMI-8226 > 100 µM | SK-MEL-28 > 100 µM | SNB-19 > 100 µM | TK-10 > 100 µM | U-251 > 100 µM

CCCC(=O)NC(NC1CCCCC1)(C(=O)OCC)C(F)(F)F (centres undefined)
inactive: A549 > 100 µM | CCRF-CEM > 100 µM | DU-145 > 100 µM | HOP-62 > 100 µM | Hs-578T > 100 µM | K562 > 100 µM | KM12 > 100 µM | NCI-H23 > 100 µM | NCI-H460 > 100 µM | NCI-H522 > 100 µM | NCI/ADR-RES > 100 µM | OVCAR-4 > 100 µM | RPMI-8226 > 100 µM | SK-MEL-28 > 100 µM | SNB-19 > 100 µM | TK-10 > 100 µM | U-251 > 100 µM

CCOC(=O)C1=C(Nc2ccc(Br)cc2)OC/C1=N\NC(=O)c1ccccc1O
inactive: A498 > 47.3 µM | A549 4.06 µM | CAKI-1 6.49 µM | CCRF-CEM 9.66 µM | HOP-62 11.2 µM | K562 7.06 µM | KM12 21.5 µM | NCI-H23 6.52 µM | NCI-H460 12.9 µM | NCI-H522 7.98 µM | OVCAR-4 26.2 µM | RPMI-8226 15 µM | SK-MEL-28 > 81.3 µM | SNB-19 10.9 µM | TK-10 > 34.8 µM | U-251 9.23 µM

CCC(=O)Nc1ccc(N2C(=O)/C(=C/c3ccc(O)c(OC)c3)N=C2c2ccccc2)cc1
inactive: A498 15.8 µM | A549 21.3 µM | CAKI-1 17.3 µM | CCRF-CEM 22.1 µM | DU-145 28.7 µM | HOP-62 46.6 µM | Hs-578T 61.1 µM | K562 18.5 µM | KM12 33.7 µM | NCI-H23 43.8 µM | NCI-H460 23.9 µM | NCI-H522 37.6 µM | NCI/ADR-RES 70.6 µM | OVCAR-4 9.91 µM | RPMI-8226 6.82 µM | SK-MEL-28 25.6 µM | SNB-19 22.5 µM

C=C[C@@]1(C)CC(=O)[C@]2(O)[C@@]3(C)[C@@H](OC(C)=O)CCC(C)(C)[C@@H]3[C@H](OC(C)=O)[C@H](OC(C)=O)[C@@]2(C)O1
inactive: A498 > 100 µM | A549 > 100 µM | CAKI-1 > 100 µM | DU-145 > 100 µM | HOP-62 > 100 µM | K562 > 100 µM | KM12 36.1 µM | MDA-MB-231 > 100 µM | NCI-H23 > 100 µM | NCI-H460 > 100 µM | NCI/ADR-RES > 100 µM | OVCAR-4 > 100 µM | SK-MEL-28 > 100 µM | SNB-19 > 100 µM | U-251 > 100 µM

CC1OC(OC2C(OC(=O)[C@]34CCC(C)(C)C[C@H]3C3=CC[C@@H]5[C@@]6(C)CC[C@H](OC7OC(C(=O)O)C(O)C(O)C7O)C(C)(C)[C@@H]6CC[C@@]5(C)[C@]3(C)CC4)OCC(O)C2O)C(O)C(O)C1OC1OCC(O)C(O)C1O (some centres undefined)
inactive: A498 17.8 µM and 18.6 µM | A549 35.2 µM and 30.6 µM | CAKI-1 30 µM and 40.4 µM | CCRF-CEM 77.4 µM | MDA-MB-231 11 µM and 21.5 µM | NCI-H23 17.7 µM and 19.6 µM | NCI-H460 > 100 µM | NCI-H522 45.1 µM and 45.5 µM | NCI/ADR-RES 93.5 µM | OVCAR-4 54 µM and 53.8 µM | SK-MEL-28 18.1 µM and 24 µM | U-251 39.3 µM and 75.2 µM

COc1cc(/C=C\c2ccccn2)cc(OC)c1OC
inactive: A498 78.5 µM | A549 85.7 µM | CAKI-1 > 100 µM | CCRF-CEM > 100 µM | HOP-62 79.4 µM | K562 32.1 µM | KM12 63.8 µM | NCI-H23 > 100 µM | NCI-H460 > 100 µM | NCI-H522 70 µM | OVCAR-4 > 100 µM | RPMI-8226 30.6 µM | SK-MEL-28 > 100 µM | SNB-19 > 100 µM | TK-10 > 100 µM | U-251 > 100 µM

CC(C)NC(C)Cc1ccccc1 (centres undefined)
inactive: A498 > 100 µM | A549 > 100 µM | CAKI-1 > 100 µM | CCRF-CEM > 100 µM | HOP-62 > 100 µM | K562 > 100 µM | KM12 > 100 µM | NCI-H23 > 100 µM | NCI-H460 > 100 µM | NCI-H522 > 100 µM | OVCAR-4 > 100 µM | RPMI-8226 > 100 µM | SK-MEL-28 > 100 µM | SNB-19 > 100 µM | TK-10 > 100 µM | U-251 > 100 µM

C=C=C(C)C(=O)N(C(C)C)C(C)C
inactive: A498 > 100 µM | A549 > 100 µM | CCRF-CEM > 100 µM | DU-145 > 100 µM | HOP-62 > 100 µM | K562 > 100 µM | MDA-MB-231 > 100 µM | NCI-H23 > 100 µM | NCI-H460 > 100 µM | NCI/ADR-RES > 100 µM | OVCAR-4 > 100 µM | RPMI-8226 > 100 µM | SK-MEL-28 > 100 µM | SNB-19 > 100 µM | TK-10 > 100 µM | U-251 > 100 µM

CC(C)CC(NC(=O)C(CCC(=O)OCc1ccccc1)NC(=O)OC(C)(C)C)C(=O)NC(COCc1ccccc1)C(=O)NC(Cc1ccccc1)C(=O)O (centres undefined) (Boc-E(OBn)LS(Bn)F-OH; configuration not given here)
inactive: A498 > 100 µM | A549 > 100 µM | HOP-62 > 100 µM | Hs-578T > 100 µM | K562 > 100 µM | KM12 > 100 µM | MDA-MB-231 > 100 µM | NCI-H23 > 100 µM | NCI-H460 > 100 µM | RPMI-8226 > 100 µM | SK-MEL-28 > 100 µM | SNB-19 > 100 µM | TK-10 > 100 µM | U-251 > 100 µM

COC(=O)[C@H](C)N(C)C(=O)C(CC(N)=O)N(C)C(=O)[C@H](Cc1ccccc1)N(C)C(=O)[C@@H]1CCCN1C(=O)[C@H](C(C)C)N(C)C(=O)C(C(C)C)N(C)C(=O)[C@@H](NC(=O)OC(C)(C)C)C(C)C (some centres undefined) (Boc-V[ξNMeV][NMeV]P[NMeF][ξNMeN][NMeA]-OMe)
inactive: A498 > 50 µM | A549 > 50 µM | CAKI-1 > 50 µM | CCRF-CEM 13.6 µM | DU-145 > 50 µM | HOP-62 > 50 µM | K562 > 50 µM | KM12 16.4 µM | MDA-MB-231 > 50 µM | NCI-H23 > 50 µM | NCI-H460 > 50 µM | NCI-H522 > 50 µM | NCI/ADR-RES > 50 µM | OVCAR-4 38.5 µM | RPMI-8226 > 5 µM | SK-MEL-28 > 50 µM | SNB-19 > 50 µM | TK-10 > 50 µM | U-251 > 50 µM
